The source of these data is ChEMBL document CHEMBL1944625, “Design and synthesis of 3,5-diarylpiperidin-2,6-diones as anticonvulsant agents” (Bioorg Med Chem Lett, 2012).

Each structure is given as a SMILES string.

In general, ED50 refers to the midpoint of the dose-response relation. The inhibition in vivo is the relative decrease from the control value, in per cent. The term TD50 denotes the dose at which the toxic effect under study appears in half of the subjects.

Data set [1] concerns Mus musculus. Nature of the data set: Neurotoxicity in Swiss albino mouse assessed as impair in motor coordination at 300 mg/kg, ip after 0.5 hrs by rotarod test. It counts as toxicity, organism-based. Set-up: dose 300 mg/kg, route intraperitoneal. Particulars: in vivo. Background: Falling from the rotarod earlier than controls is read as motor impairment.
For data set [2], the system named is Mus musculus. Kind of data set: Anticonvulsant activity in ip dosed Swiss albino mouse assessed as protection against maximal electroshock-induced seizures after 2 hrs. It counts as functional. For orientation: The maximal electroshock test induces tonic seizures with an electrical stimulus.
The test system of data set [3] is Mus musculus. Kind of data set: Anticonvulsant activity in Swiss albino mouse assessed as protection against maximal electroshock-induced seizures measuring inhibition of extension phase at 25 mg/kg, ip after 2 hrs. Particulars: route intraperitoneal. It counts as functional.
Data set [4] has as its system Mus musculus. Kind of data set: Neurotoxicity in Swiss albino mouse assessed as impair in motor coordination at 300 mg/kg, ip after 4 hrs by rotarod test. Type of data set: toxicity, organism-based. Set-up: dose 300 mg/kg, route intraperitoneal. The settings on record: in vivo.
Data set [5] is described as follows: Neurotoxicity in ip dosed Swiss albino mouse assessed as impair in motor coordination from 0.5 to 4 hrs post administration by rotarod test. Type of data set: toxicity, organism-based. Particulars: in vivo.
Data set [6] concerns Mus musculus. Nature of the data set: Neurotoxicity in Swiss albino mouse assessed as impair in motor coordination at 100 mg/kg, ip after 0.5 hrs by rotarod test. The settings on record: in vivo. Set-up: dose 100 mg/kg, route intraperitoneal. Type of data set: toxicity, organism-based.
The species named for data set [7] is Mus musculus. Nature of the data set: Protection index, ratio of TD50 for Swiss albino mouse by rotarod test to ED50 for Swiss albino mouse by maximal electroshock test. It counts as functional.

In the case of `O=C1C(c2ccccc2)CC(c2ccccc2)C(=O)N1c1cccc(Cl)c1` (configuration not stated), the Activity result with Mus musculus [1] was “Toxic”; in the data set on Mus musculus [4], “Non-toxic”. Further, the ED50 in the data set with Mus musculus [2] is over 100 mg/kg. For the same molecule, in the data set with Mus musculus [3], the inhibition in vivo at 25 mg/kg was found to be 32.2%.

Regarding `Cc1ccc(N2C(=O)C(c3ccccc3)CC(c3ccccc3)C2=O)cc1` (configuration not stated), the TD50 in data set [5] amounted to 190 mg/kg. Besides, in the data set on Mus musculus [2], the ED50 stood at 82 mg/kg. Besides, the Activity entry in the data set on Mus musculus [6] and with Mus musculus [4] was “Toxic” in each case. In addition, the inhibition in vivo at 25 mg/kg in the data set with Mus musculus [3] was found to be 43.3%. The “Ratio TD50/ED50” value in the data set listed under Mus musculus [7] is listed as 2.3.

As to `Cc1ccc(N2C(=O)C(c3ccccc3Cl)CC(c3ccccc3Cl)C2=O)cc1` (configuration not stated), the Activity entry with Mus musculus [1] is “Toxic”; in the data set with Mus musculus [4], “Non-toxic”. In data set [5], the TD50 came out at 86.5 mg/kg. Further, the ED50 with Mus musculus [2] stood at 41.2 mg/kg. The inhibition in vivo at 25 mg/kg in the data set with Mus musculus [3] was 58.2%. Moreover, in the data set filed under Mus musculus [7], the “Ratio TD50/ED50” value is 2.1.

For `CN1C(=O)C(c2ccccc2Cl)CC(c2ccccc2Cl)C1=O` (configuration not stated), the TD50 in data set [5] is 220 mg/kg. For the same molecule, in the data set with Mus musculus [2], the ED50 was found to be 23.7 mg/kg. The Activity entry in the data set on Mus musculus [6] and in the data set on Mus musculus [4] was “Toxic” in each case. Also, in the data set on Mus musculus [3], the inhibition in vivo at 25 mg/kg amounted to 61.7%. In the data set listed under Mus musculus [7], the “Ratio TD50/ED50” value is on record as 9.2.

Consider `Cc1ccccc1N1C(=O)C(c2ccccc2Cl)CC(c2ccccc2Cl)C1=O` (configuration not stated), for which the Activity result with Mus musculus [1] and in the data set on Mus musculus [4] was “Non-toxic” each time. In data set [5], the TD50 was found to be 227 mg/kg. Moreover, in the data set on Mus musculus [2], the ED50 was found to be 27.4 mg/kg. Besides, in the data set with Mus musculus [3], the inhibition in vivo at 25 mg/kg was determined as 60.6%. Moreover, the “Ratio TD50/ED50” value in the data set listed under Mus musculus [7] is on record as 8.3.

Regarding `O=C1C(c2ccccc2Cl)CC(c2ccccc2Cl)C(=O)N1Cc1ccccc1` (configuration not stated), the Activity entry in the data set with Mus musculus [1] and in the data set with Mus musculus [4] was “Non-toxic” each time. In data set [5], the TD50 was determined as 106 mg/kg. Also, in the data set with Mus musculus [2], the ED50 amounted to 38.3 mg/kg. Besides, the inhibition in vivo at 25 mg/kg in the data set with Mus musculus [3] is 58.2%. Also, the “Ratio TD50/ED50” value in the data set filed under Mus musculus [7] stood at 2.7.

For `NN1C(=O)C(c2ccccc2Cl)CC(c2ccccc2Cl)C1=O` (configuration not stated), the Activity entry in the data set with Mus musculus [1] and in the data set with Mus musculus [4] was “Toxic” in each case. Also, the TD50 in data set [5] was determined as 117 mg/kg. Moreover, the median effective dose (ED50) in the data set with Mus musculus [2] amounted to 11.2 mg/kg. Moreover, in the data set on Mus musculus [3], the inhibition in vivo at 25 mg/kg was 73.3%. Also, the “Ratio TD50/ED50” value in the data set filed under Mus musculus [7] was determined as 10.6.

Take `CN1C(=O)C(c2ccccc2)CC(c2ccccc2)C1=O` (configuration not stated): in data set [5], the TD50 came out at 323 mg/kg. Further, in the data set on Mus musculus [2], the ED50 worked out at 14.8 mg/kg. Besides, the Activity result in the data set with Mus musculus [6] and in the data set with Mus musculus [4] was “Toxic” each time. Also, the inhibition in vivo at 25 mg/kg in the data set with Mus musculus [3] came to 69.1%. In addition, the “Ratio TD50/ED50” value in the data set listed under Mus musculus [7] is reported as 21.8.

As for `Cc1ccccc1N1C(=O)C(c2ccccc2)CC(c2ccccc2)C1=O` (configuration not stated), the Activity entry in the data set with Mus musculus [1] is “Toxic”; in the data set with Mus musculus [4], “Non-toxic”. The TD50 in data set [5] was 104 mg/kg. Further, in the data set with Mus musculus [2], the ED50 was found to be 21.5 mg/kg. In addition, the inhibition in vivo at 25 mg/kg with Mus musculus [3] was 66.1%. The “Ratio TD50/ED50” value in the data set filed under Mus musculus [7] came out at 4.9.

Take `O=C1N=C(O)NC1(c1ccccc1)c1ccccc1` [PHENYTOIN SODIUM]: the inhibition in vivo at 25 mg/kg in the data set on Mus musculus [3] is 80.7%.

Turning to `O=C1NC(=O)C(c2ccccc2)CC1c1ccccc1` (configuration not stated), the Activity result with Mus musculus [1] and in the data set with Mus musculus [4] was “Non-toxic” each time. Also, the TD50 in data set [5] is 193 mg/kg. The ED50 in the data set on Mus musculus [2] is 11 mg/kg. In addition, the inhibition in vivo at 25 mg/kg in the data set with Mus musculus [3] worked out at 70.2%. In addition, in the data set listed under Mus musculus [7], the “Ratio TD50/ED50” value is 17.5.

`NC(=O)N1c2ccccc2C=Cc2ccccc21` [CARBAMAZEPINE]: in the data set with Mus musculus [2], the ED50 is 11.8 mg/kg. Further, in the data set filed under Mus musculus [7], the “Ratio TD50/ED50” value is 6.4.

`O=C1C(c2ccccc2)CC(c2ccccc2)C(=O)N1Cc1ccccc1` (configuration not stated): the Activity result in the data set with Mus musculus [1] and in the data set on Mus musculus [4] was “Non-toxic” each time. In data set [5], the TD50 was 218 mg/kg. Further, the ED50 in the data set with Mus musculus [2] came out at 14 mg/kg. In addition, the inhibition in vivo at 25 mg/kg in the data set with Mus musculus [3] was found to be 64.5%. Also, in the data set listed under Mus musculus [7], the “Ratio TD50/ED50” value turned out to be 15.6.

Turning to `O=C1C(c2ccccc2Cl)CC(c2ccccc2Cl)C(=O)N1c1ccccc1` (configuration not stated), the Activity result in the data set on Mus musculus [1] and with Mus musculus [4] was “Non-toxic” throughout. For the same molecule, the TD50 in data set [5] came out at 198 mg/kg. For the same molecule, the 50% effective dose (ED50) in the data set with Mus musculus [2] came out at 61.4 mg/kg. The inhibition in vivo at 25 mg/kg in the data set on Mus musculus [3] was 40.6%. For the same molecule, the “Ratio TD50/ED50” value in the data set filed under Mus musculus [7] turned out to be 3.2.

As for `NN1C(=O)C(c2ccccc2)CC(c2ccccc2)C1=O` (configuration not stated), the Activity result in the data set on Mus musculus [1] and in the data set with Mus musculus [4] was “Non-toxic” throughout. Moreover, the TD50 in data set [5] was found to be 123 mg/kg. Besides, the 50% effective dose (ED50) in the data set on Mus musculus [2] stood at 10 mg/kg. The inhibition in vivo at 25 mg/kg in the data set with Mus musculus [3] amounted to 76%. The “Ratio TD50/ED50” value in the data set listed under Mus musculus [7] was 12.3.

For the molecule `O=C1NC(=O)C(c2ccccc2Cl)CC1c1ccccc1Cl` (configuration not stated), the Activity entry in the data set with Mus musculus [1] and with Mus musculus [4] was “Non-toxic” each time. Besides, in data set [5], the TD50 was determined as 175 mg/kg. The ED50 in the data set on Mus musculus [2] came out at 25.5 mg/kg. Moreover, in the data set with Mus musculus [3], the inhibition in vivo at 25 mg/kg amounted to 58.3%. The “Ratio TD50/ED50” value in the data set listed under Mus musculus [7] worked out at 7.

As to `O=C1C(c2ccccc2)CC(c2ccccc2)C(=O)N1c1ccccc1` (configuration not stated), the figures for the Activity entry with Mus musculus [1] and in the data set on Mus musculus [4] were “Toxic” and “Non-toxic”, respectively. In data set [5], the TD50 was 165 mg/kg. Moreover, the ED50 in the data set with Mus musculus [2] turned out to be 43.7 mg/kg. Further, the inhibition in vivo at 25 mg/kg in the data set on Mus musculus [3] was 38.3%. In addition, the “Ratio TD50/ED50” value in the data set listed under Mus musculus [7] worked out at 3.7.

In the case of `O=C1C(c2ccccc2Cl)CC(c2ccccc2Cl)C(=O)N1c1cccc(Cl)c1` (configuration not stated), the Activity entry in the data set with Mus musculus [1] and in the data set on Mus musculus [4] was “Non-toxic” throughout. Also, the TD50 in data set [5] is 108 mg/kg. Moreover, the ED50 with Mus musculus [2] was 60.2 mg/kg. Moreover, in the data set with Mus musculus [3], the inhibition in vivo at 25 mg/kg amounted to 43.7%. The “Ratio TD50/ED50” value in the data set filed under Mus musculus [7] was 1.8.
